{
  "source": "paper PMC6459586",
  "about": "“Structure-Based Design of MptpB Inhibitors That Reduce Multidrug-Resistant Mycobacterium tuberculosis Survival and Infection Burden in Vivo” (Journal of Medicinal Chemistry, 2018)",
  "key": {"[1]": {"target": "T1, hPTP1B (Homo sapiens, UniProt P18031)", "T1 construct": "GST (N, cleaved yes); made in house; host or cells: E. coli", "T1 sequence (P18031 whole entry)": "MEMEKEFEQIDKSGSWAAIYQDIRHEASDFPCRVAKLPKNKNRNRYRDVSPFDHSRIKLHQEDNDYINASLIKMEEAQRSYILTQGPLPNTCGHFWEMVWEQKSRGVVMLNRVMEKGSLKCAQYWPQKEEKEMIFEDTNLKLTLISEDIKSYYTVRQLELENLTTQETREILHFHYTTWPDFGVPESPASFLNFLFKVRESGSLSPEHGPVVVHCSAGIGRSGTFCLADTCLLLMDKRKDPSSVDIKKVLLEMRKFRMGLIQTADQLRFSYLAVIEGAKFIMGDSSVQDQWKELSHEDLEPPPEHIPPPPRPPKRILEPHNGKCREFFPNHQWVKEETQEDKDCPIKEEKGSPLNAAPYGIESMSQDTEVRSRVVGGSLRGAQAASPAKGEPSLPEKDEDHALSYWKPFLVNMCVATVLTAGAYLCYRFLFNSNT", "assay": "biochemical", "conditions": "read-out: IC50 hPTP1B (Supplementary Table 1)"}, "[2]": {"target": "T2, hVHR (Homo sapiens, UniProt P51452)", "T2 construct": "GST (N, cleaved yes); made in house; host or cells: E. coli", "T2 sequence (P51452 whole entry)": "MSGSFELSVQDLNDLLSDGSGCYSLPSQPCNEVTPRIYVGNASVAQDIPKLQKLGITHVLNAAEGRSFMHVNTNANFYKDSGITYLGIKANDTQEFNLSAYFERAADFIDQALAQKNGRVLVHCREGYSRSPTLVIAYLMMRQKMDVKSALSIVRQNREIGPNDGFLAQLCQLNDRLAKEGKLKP", "assay": "biochemical", "conditions": "read-out: IC50 hVHR (Supplementary Table 1)"}, "[3]": {"system": "BCG in mouse macrophages (J774)", "type": "cell-based, Mycobacterium bovis Bacille Calmette-Guerin"}, "[4]": {"system": "M. tuberculosis H37Rv in human macrophages (THP1)", "type": "cell-based"}, "[5]": {"system": "MDR strain (Beijing-W) in human macrophages (THP1)", "type": "cell-based, M. tuberculosis"}, "[6]": {"system": "BCG", "type": "cell-based, Mycobacterium bovis Bacille Calmette-Guerin"}, "[7]": {"system": "PI3P on M. tuberculosis phagosomes (RAW264.7 macrophages)", "type": "cell-based"}, "[8]": {"assay": "Pharmacokinetic evaluation in guinea pigs", "type": "in vivo", "conditions": "male, Durkin Hartley, guinea pig, in vivo", "description": "Guinea pig males (Durkin Hartley) were used to evaluate the pharmacokinetics and tissue distribution of compounds. The route of administration was either intraperitoneal (ip) or oral (po) with dosage varying from 3.5 to 8 mg kg^–1 (op) and 2.5–4 mg kg^–1 (ip). In each case 4 samples were collected per time point at 0.1, 0.5, 2, 4, and 8 h post dose for ip and 0.25, 0.5, 2, 4, and 8 h post dose for po. Compounds were prepared in 10% DMSO, 5% Cremaphor, and 85% physiological saline for IP administration or 0.5% (v/v) Tween 80, 99.5% (v/v) 0.5% methylcellulose for oral administration. Tissue samples (n = 4) from lung, liver, and kidney were collected at the end of the study and snap frozen prior to bioanalysis."}, "[9]": {"system": "M. tuberculosis H37Rv", "assay": "Acute guinea pig model of TB infection", "type": "in vivo", "conditions": "28 days of treatment, oral daily, 13 100 mg/kg, RIF 50 mg/kg"}, "[10]": {"system": "M. tuberculosis", "type": "in vivo, guinea pig"}, "[11]": {"assay": "physchem", "type": "physicochemical", "conditions": "pH 7.4", "description": "Experimental Methods (ADME determinations).\nADME determinations for Compound 13 (data kindly supplied by LifeArc).\nLogD measurements were carried out using the shake flask method. Compound was diluted from a 10 mM DMSO stock solution into an eppendorf containing equal amounts of octanol and phosphate buffered saline (PBS) to give a final concentration of 100 µM. The tubes were shaken for 12 hours, centrifuged at 10000 rpm for 10 minutes and samples taken from the octanol and PBS layers. The samples from both layers were analysed in triplicate by LC-MS/MS (Aglient Technologies G6410 series, triple quadrupole with MM-ESI ion source) using optimised multiple reaction monitoring (MRM) scans and a standard column gradient on an Acquity UPLC BEH C8 1.7 µm column, running acetonitrile and water with 0.05% acetic acid as the mobile phase. The ratios of areas of the peaks were used to calculate the Log D in accordance with the equation:\nLog D = Log10(Area-TL/Area BL)\nPBS pH7.4 in a filtration plate at a target concentration of 200 µM giving a final solution composition of 98:2 PBS:DMSO. […] The UV absorbance for these solutions was read across 230-400 nM at 1 nM intervals using a T ECAN Safire II plate reader and a suitable UV wavelength chosen around the UV maximum of each compound. […]"}, "[12]": {"conditions": "guinea pig, 50 or 100 mg/kg orally once daily for 7 days"}, "[13]": {"conditions": "chronic model, 28 days of treatment from day 28, oral daily, 13 100 mg/kg, RIF 50 mg/kg"}, "[14]": {"conditions": "chronic model, 28 days of treatment from day 28, oral daily, 13 100 mg/kg, RIF 50 mg/kg, listed as Cpd 13"}},
  "note": "“Also recorded” adds a separate entry of the source. Read-outs that look alike come from different tables or passages of the source.",
  "data": [
    {"smiles": "Cc1onc(C(=O)O)c1-c1cccc(-c2cc(Cl)c(O)c(Cl)c2)c1", "note": "[Compound 13, 4-(3′,5′-Dichloro-4′-hydroxy-3-biphenyl)-5-methylisoxazole-3-carboxylic Acid]", "values": [
      {"measurement": "IC50", "setting": "[1]", "value": "> 100", "unit": "µM"},
      {"measurement": "IC50", "setting": "[2]", "value": "> 100", "unit": "µM"},
      {"measurement": "reduction in intracellular mycobacterial (BCG) burden", "setting": "[3]", "value": "up to 84%"},
      {"measurement": "reduction of intracellular mycobacterial burden, H37Rv", "setting": "[4]", "value": "up to 63%"},
      {"measurement": "reduction of intracellular mycobacterial burden, MDR strain (Beijing-W)", "setting": "[5]", "value": "up to 74%"},
      {"measurement": "effect on extracellular growth of BCG", "setting": "[6]", "value": "does not affect extracellular bacterial growth; also recorded: not affected"},
      {"measurement": "duration of the peak of PI3P on phagosomes", "setting": "[7]", "value": "up to 12 min"},
      {"measurement": "half-life", "setting": "[8]; ip, 4 mg/kg, IP, dose mg/kg: 13 4, 5 2.5, 8 1.25, 9 2.5", "value": 1.4, "unit": "h"},
      {"measurement": "half-life", "setting": "[8]; po, 8 mg/kg, oral, dose mg/kg: 13 8, 5 5, 8 3.5, 9 5", "value": 5, "unit": "h"},
      {"measurement": "Lungs infection burden, average", "setting": "[9]", "value": 5.9, "unit": "log CFU"},
      {"measurement": "Lungs log reduction relative to vehicle", "setting": "[9]", "value": 0.9, "unit": "log"},
      {"measurement": "Spleen infection burden, average", "setting": "[9]", "value": 5.6, "unit": "log CFU"},
      {"measurement": "Spleen log reduction relative to vehicle", "setting": "[9]", "value": 0, "unit": "log"},
      {"measurement": "Lungs infection burden, average", "setting": "[10]; [13]", "value": 4.7, "unit": "log CFU"},
      {"measurement": "Lungs log reduction relative to vehicle", "setting": "[10]; [13]", "value": "at least 1 log"},
      {"measurement": "Spleen infection burden, average", "setting": "[10]; [13]", "value": 4.2, "unit": "log CFU"},
      {"measurement": "Spleen log reduction relative to vehicle", "setting": "[10]; [13]", "value": "at least 1 log"},
      {"measurement": "Lungs log reduction relative to vehicle", "setting": "[10]; [14]", "value": 1.0, "unit": "log"},
      {"measurement": "Spleen log reduction relative to vehicle", "setting": "[10]; [14]", "value": 1.0, "unit": "log"},
      {"measurement": "Lungs weight % change relative to Vehicle", "setting": "[10]; guinea pig, in vivo", "value": -19, "unit": "%"},
      {"measurement": "Lungs weight, average", "setting": "[10]; guinea pig, in vivo", "value": 4.4, "unit": "g"},
      {"measurement": "Spleen weight % change relative to Vehicle", "setting": "[10]; guinea pig, in vivo", "value": -19, "unit": "%"},
      {"measurement": "Spleen weight, average", "setting": "[10]; guinea pig, in vivo", "value": 2.1, "unit": "g"},
      {"measurement": "histopathology of lungs and spleens", "setting": "[10]; guinea pig, in vivo, 100 mg/kg", "value": "improvement in the pathology"},
      {"measurement": "logD", "setting": "[11]", "value": 4},
      {"measurement": "adverse drug effects (tolerability)", "setting": "[12]", "value": "no adverse drug effects"},
      {"measurement": "weight increases during the tolerability trial", "setting": "[12]", "value": "> 5", "unit": "%"}
    ]}
  ]
}
